In patent US20100204153A1, “USE OF BAND 3 PROTEIN (824-829) AND/OR MELANOCYTE-STIMULATING HORMONE RELEASE-INHIBITING FACTOR AS A THERAPEUTIC AGENT IN THE TREATMENT OF PSEUDOMONAS AERUGINOSA INFECTION” (priority 2007, published 2010):
Where no end group is shown, it is not given here.

Key:
HIV-1IIIB = experiment: HIV-1 antiviral assay in CEM-SS cells
HCMV strain AD169 = experiment: HCMV plaque formation assay in MRC-5 cells; assay type: cell-based; conditions: for inhibition of HCMV plaque formation as compared to the virus control experiment: 10 micrograms per ml, 7-10 days
[1] = system: hepatitis B virus (HBV) ayw strain; experiment: HBV assay in HepG2-2.2.15 cells (TaqMan PCR of secreted HBV DNA); assay type: cell-based; conditions: 10 micrograms per ml; six days
[2] = system: Primary Human endothelial cells (HUVEC); experiment: Endothelial cell migration assay; assay type: cell-based; conditions: 10 micrograms per ml; 22 hours
Procedure: Thereafter, designated concentration of testing peptides—10 micrograms per ml—was added in duplicate wells.

Pseudomonas aeruginosa = Pseudomonas aeruginosa assay; assay type: cell-based; conditions: 10 micrograms per ml; 5×10^5 CFU/mL; combination 0.95:1.05 mole and all other molar ratios from 1:100 to 100:1
murine spleen cells = experiment: Th1/Th2 cytokine profiling assay; assay type: cell-based, Balb/c mice; conditions: 10 micrograms per ml; Ovalbumin restimulation, 72 hours; combination 0.95:1.05 mole
HUVEC = experiment: Endothelial tube formation assay; assay type: cell-based, human; conditions: 10 micrograms per ml; 20 hours
Text: Positive control was vehicle only.

| Compound | antiviral activity of positive control compounds (HIV-1) (HIV-1IIIB) | antiviral activity of positive control compound (HCMV) (HCMV strain AD169; positive control compound) | inhibition of HCMV plaque formation as compared to the virus control experiment (HCMV strain AD169) | inhibition of HBV replication as compared to the virus control infection [1] | induction of the migration of endothelial cells [2] [%] | inhibition of the growth of Pseudomonas aeruginosa (Pseudomonas aeruginosa) [%] | change of the production of IFN-γ (murine spleen cells) | change of the production of TNF-alpha (murine spleen cells) | decrease of the production of IL-2 (murine spleen cells) [%] | decrease of the production of IL-4 (murine spleen cells) [%] | decrease of the production of IL-5 (murine spleen cells) [%] | inhibition of the tube formation of human endothelial cells (HUVEC) [%] | inhibition of the migration of human endothelial cells [2] [%] |
| --- | --- | --- | --- | --- | --- | --- | --- | --- | --- | --- | --- | --- | --- |
| Cc1cn([C@H]2C[C@H](N=[N+]=[N-])[C@@H](CO)O2)c(=O)[nH]c1=O [AZT] | expected levels of antiviral activity | – | – | – | – | – | – | – | – | – | – | – | – |
| Nc1nc(O)c2ncn(COC(CO)CO)c2n1 [Ganciclovir, reference compound] | – | expected levels of antiviral activity | – | – | – | – | – | – | – | – | – | – | – |
| CC(C)(C)NC(=O)[C@@H]1CN(Cc2cccnc2)CCN1C[C@@H](O)C[C@@H](Cc1ccccc1)C(=O)N[C@H]1c2ccccc2C[C@H]1O [indinavir] | expected levels of antiviral activity | – | – | – | – | – | – | – | – | – | – | – | – |
| Pro-Leu-Gly-NH2 [Peptide 2] | – | – | did not inhibit | 10.9% | 8 | 100 | did not significantly change | did not significantly change | 100 | 100 | 42.3 | 16 | – |
| Tyr-Val-Lys-Arg-Val-Lys-OH (YVKRVK-OH) [Peptide 1] | – | – | did not inhibit | did not inhibit | – | 100 | did not significantly change | did not significantly change | 41.9 | 58.2 | 37.4 | 21 | 8 |
